Laboratory results as given in US20240294572A1, “Antimicrobial Peptides” (priority 2021, published 2024).
Converted amounts (≈) assume the structure as drawn. Residues, ends and D or L forms follow the SMILES beside them. No end group written: not given here. *: point of attachment. Myristoyl = CCCCCCCCCCCCCC(=O)*; Lauroyl = CCCCCCCCCCCC(=O)*; Decanoyl = CCCCCCCCCC(=O)*; Octanoyl = CCCCCCCC(=O)*

Columns and labels:
Assay type in all cases: cell-based
P. aeruginosa PAO1 = test system: P. aeruginosa PAO1
Experimental: (§1) The antibacterial activity of peptides was evaluated using a standard broth microdilution protocol (Clinical Laboratories Standards Institute (CLSI): M07-A10. Methods for Dilution Antimicrobial Susceptibility Tests for Bacteria that grow aerobically; Approved Standard, Tenth Edition, 2015) with minor modifications as described (Mishra, et al. (2019) Proc. Natl. Acad. Sci., 116:13517-13522). In brief, peptides (10 μL per well) with 2-fold dilutions were made in 96-well polystyrene microplates. Subsequently, the logarithmic phase bacterial cultures (i.e., optical density at 600 nm ˜0.5) were diluted to 0.001 OD and aliquoted to 90 μL per well. The plates were incubated overnight at 37°° C. Bacterial controls were treated with water, and the wells containing only the TSB media were used as blank. Positive controls included the parent peptide LL-37 as well as KR12. Post incubation, the plates were read at 630 nm using ChroMate® 4300 Microplate Reader (Awareness Technology, FL).

S. aureus USA300 LAC = conditions: USA300
Experimental: as §1
(§2) To study the influence of medium conditions on the antimicrobial activity of peptides against S. aureus USA300, different pH, sodium chloride (NaCl), human sera were included into the antibacterial assays. Control experiments in TSB without any additions (pH 7.4) were set up in the same manner. In addition, antimicrobial activities of human LL-37, KR12, and C10-KR8d were compared in 10%, 50%, and 100% TSB as well as in TSB and MHB using E. coli ATCC 25922 and S. aureus USA300 LAC.

E. coli ATCC 25922 = test system: E. coli ATCC 25922
Experimental: as §1, §2

[1] = test system: Klebsiella pneumonia ATCC 13883; experiment: Antibacterial broth microdilution MIC
Experimental: as §1

[2] = test system: human red blood cells (hRBCs); conditions: red cells of human, 1 h
Experimental: Hemolytic assays of peptides were performed as described (Lakshmaiah, et al. (2020) Proc. Natl. Acad. Sci., 117:19446-19454). Briefly, human red blood cells (hRBCs) were obtained from UNMC Blood Bank. The cells were washed 3× with isotonic saline (0.9% NaCl) and diluted to 2% (v/v). Peptides at various concentrations were added to the 2% blood cells and incubated at 37° C. for 1 hour. Post-incubation, the plates were spun at 2000 rpm for 10 minutes; aliquots of the supernatant were carefully transferred to a fresh 96-well microplate. The amount of cells lysed is proportional to the hemoglobin released and was measured at 545 nm using a ChroMate® microplate reader (Awareness Technology, FL). The percent lysis was calculated by assuming 100% release when human blood cells were treated with 1% Triton™ X-100, and 0% release when incubated with PBS. The peptide concentration that caused 50% lysis of hRBCs is defined as HC50. The cell selectivity index (CSI) was calculated as the ratio between HC50 and the MIC of the corresponding peptide against MRSA.

Compound | MIC (μM) PA (P. aeruginosa PAO1) | MIC (μM) SA (S. aureus USA300 LAC) | MIC (μM) EC (E. coli ATCC 25922) | MIC (μM) KP [1] | HC50 [2] | Minimal inhibitory concentration against S. aureus, 10% TSB (S. aureus USA300 LAC) | Minimal inhibitory concentration against S. aureus, 50% TSB (S. aureus USA300 LAC) | Minimal inhibitory concentration against S. aureus, 100% MHB (S. aureus USA300 LAC) | Minimal inhibitory concentration against S. aureus, 100% TSB (S. aureus USA300 LAC) | Minimal inhibitory concentration against E. coli, 10% TSB (E. coli ATCC 25922) | Minimal inhibitory concentration against E. coli, 50% TSB (E. coli ATCC 25922) | Minimal inhibitory concentration against E. coli, 100% MHB (E. coli ATCC 25922)
CCCCCCCC(=O)N[C@@H](CCCCN)C(=O)N[C@@H](CCCNC(=N)N)C(=O)N[C@H](C(=O)N[C@@H](Cc1c[nH]c2ccccc12)C(=O)N[C@@H](CCC(N)=O)C(=O)N[C@@H](CCCNC(=N)N)C(=O)N[C@H](C(=O)N[C@@H](CCCCN)C(=O)N[C@@H](CC(=O)O)C(=O)N[C@@H](Cc1ccccc1)C(=O)N[C@@H](CC(C)C)C(=O)N[C@@H](CCCNC(=N)N)C(N)=O)[C@@H](C)CC)[C@@H](C)CC [Peptide C8-KR12] (Octanoyl-KRIWQRIKDFLR-NH2) | 6.2 µM (≈ 11.1 µg/mL) | 3.1 µM (≈ 5.53 µg/mL) | 6.2 µM (≈ 11.1 µg/mL) | <6.2 µM | <25 µM | – | – | – | – | – | – | –
CCCCCCCCCCCC(=O)N[C@@H](CCCCN)C(=O)N[C@@H](CCCNC(=N)N)C(=O)N[C@H](C(=O)N[C@@H](Cc1c[nH]c2ccccc12)C(=O)N[C@@H](CCC(N)=O)C(=O)N[C@@H](CCCNC(=N)N)C(=O)N[C@H](C(=O)N[C@@H](CCCCN)C(N)=O)[C@@H](C)CC)[C@@H](C)CC [Peptide C12-KR8] (Lauroyl-KRIWQRIK-NH2) | 3.1 µM (≈ 4.06 µg/mL) | 1.5 µM (≈ 1.96 µg/mL) | 6.2 µM (≈ 8.11 µg/mL) | >50 µM | 35 µM | – | – | – | – | – | – | –
CCCCCCCCCCCC(=O)N[C@@H](CCCCN)C(=O)N[C@@H](CCCNC(=N)N)C(=O)N[C@H](C(=O)N[C@@H](Cc1c[nH]c2ccccc12)C(=O)N[C@@H](CCC(N)=O)C(=O)N[C@@H](CCCNC(=N)N)C(=O)N[C@H](C(=O)N[C@@H](CCCCN)C(=O)N[C@@H](CC(=O)O)C(=O)N[C@@H](Cc1ccccc1)C(=O)N[C@@H](CC(C)C)C(=O)N[C@@H](CCCNC(=N)N)C(N)=O)[C@@H](C)CC)[C@@H](C)CC [Peptide C12-KR12] (Lauroyl-KRIWQRIKDFLR-NH2) | >50 µM | 6.2 µM (≈ 11.4 µg/mL) | >50 µM | 12.5 µM (≈ 23 µg/mL) | <25 µM | – | – | – | – | – | – | –
CCCCCCCCCCCCCC(=O)N[C@@H](CCCCN)C(=O)N[C@@H](CCCNC(=N)N)C(=O)N[C@H](C(=O)N[C@@H](Cc1c[nH]c2ccccc12)C(N)=O)[C@@H](C)CC [Peptide C14-KR4] (Myristoyl-KRIW-NH2) | 6.2 µM (≈ 5.03 µg/mL) | 3.1 µM (≈ 2.51 µg/mL) | 12.5 to 50 µM | 12.5 µM (≈ 10.1 µg/mL) | <25 µM | – | – | – | – | – | – | –
KRIVQRIKDFLR-NH2 [KR12, reference compound] | 25 µM | – | 50 µM | >50 µM | >340 µM | 6.2 µM | >50 µM | >50 µM | >50 µM | 1.6 µM | 3.1 µM | >50 µM
CCCCCCCC(=O)N[C@@H](CCCCN)C(=O)N[C@@H](CCCNC(=N)N)C(=O)N[C@H](C(=O)N[C@@H](Cc1c[nH]c2ccccc12)C(N)=O)[C@@H](C)CC [Peptide C8-KR4] (Octanoyl-KRIW-NH2) | >50 µM | >50 µM | >50 µM | >50 µM | >200 µM | – | – | – | – | – | – | –
CCCCCCCCCC(=O)N[C@@H](CCCCN)C(=O)N[C@@H](CCCNC(=N)N)C(=O)N[C@H](C(=O)N[C@@H](Cc1c[nH]c2ccccc12)C(N)=O)[C@@H](C)CC [Peptide C10-KR4] (Decanoyl-KRIW-NH2) | 12.5 µM (≈ 9.44 µg/mL) | 12.5 µM (≈ 9.44 µg/mL) | 50 µM (≈ 37.8 µg/mL) | >50 µM | 150 µM | – | – | – | – | – | – | –
CCCCCCCCCCCCCC(=O)N[C@@H](CCCCN)C(=O)N[C@@H](CCCNC(=N)N)C(=O)N[C@H](C(=O)N[C@@H](Cc1c[nH]c2ccccc12)C(=O)N[C@@H](CCC(N)=O)C(=O)N[C@@H](CCCNC(=N)N)C(=O)N[C@H](C(=O)N[C@@H](CCCCN)C(N)=O)[C@@H](C)CC)[C@@H](C)CC [Peptide C14-KR8] (Myristoyl-KRIWQRIK-NH2) | 6.2 µM (≈ 8.29 µg/mL) | <1.5 µM | 12.5 µM (≈ 16.7 µg/mL) | >50 µM | <25 µM | – | – | – | – | – | – | –
